The source of these data is PMC11281459 (Viruses, 2024).

Several values for one entry are separate records, joined by “and”; a condition that tells them apart may be missing. Equal values may be shown once. Read-outs that look alike come from different tables or passages of the source.

The target in one data set is hCoV-HKU1 3CLPro (Human coronavirus HKU1, UniProt P0C6X2). Briefly: biochemical.
For data set [1] the following is noted: K18-hDPP4, mouse, in vivo.
For the next data set, the system named is SARS-CoV-2 USA-WA1/2020. On the set-up: species or system transgenic K18-hACE2 mice. Particulars: mouse, in vivo.
For data set [2] the following is noted: in vivo.
For data set [3], the system named is MERS-CoV. The data set is described as follows: microbe, parasite or virus in culture. It counts as cell-based. Particulars: for EC90: read-out: EC90 Mean ± SD.
A further data set deals with hCoV-NL63 3CLPro (Human coronavirus NL63, UniProt P0C6X5). The data set is described as follows: biochemical.
Sequence of hCoV-NL63 3CLPro (P0C6X5 2940-3242 limits assumed): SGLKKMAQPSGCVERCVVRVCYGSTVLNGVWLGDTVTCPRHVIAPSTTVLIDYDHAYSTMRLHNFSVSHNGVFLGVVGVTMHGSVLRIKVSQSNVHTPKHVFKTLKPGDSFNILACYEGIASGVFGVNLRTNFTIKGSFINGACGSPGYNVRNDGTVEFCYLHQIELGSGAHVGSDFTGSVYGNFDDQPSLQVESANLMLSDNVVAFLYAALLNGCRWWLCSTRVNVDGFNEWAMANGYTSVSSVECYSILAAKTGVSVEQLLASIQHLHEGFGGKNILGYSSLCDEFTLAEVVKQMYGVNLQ
The next data set has as its system hCoV-229E. The data set is described as follows: microbe, parasite or virus in culture. It counts as cell-based. Particulars: Human coronavirus 229E, Huh-7, 120 h, read-out: EC50 Geomean.
Another data set relates to SARS-CoV-2. Briefly: microbe, parasite or virus in culture. It counts as cell-based.
In a further data set the target is SARS-CoV-1 3CLPro (Severe acute respiratory syndrome coronavirus, UniProt P0C6X7). The data set is described as follows: biochemical.
The target of another data set is hCoV-OC43 3CLPro (Human coronavirus OC43, UniProt P0C6X6). The data set is described as follows: biochemical.
Sequence of hCoV-OC43 3CLPro (P0C6X6 3247-3549 limits assumed): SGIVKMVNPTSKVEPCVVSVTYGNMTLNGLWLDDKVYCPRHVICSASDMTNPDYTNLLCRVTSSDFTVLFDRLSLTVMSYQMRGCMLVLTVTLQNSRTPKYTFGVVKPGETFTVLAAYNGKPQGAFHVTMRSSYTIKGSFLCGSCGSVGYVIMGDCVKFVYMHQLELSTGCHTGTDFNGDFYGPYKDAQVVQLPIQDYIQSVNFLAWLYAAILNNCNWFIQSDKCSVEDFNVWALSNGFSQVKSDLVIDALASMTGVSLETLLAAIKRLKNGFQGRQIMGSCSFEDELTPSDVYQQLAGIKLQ
Data set [4] can be described thus: in vitro. Particulars: human.
A further data set relates to MERS-CoV EMC 2012. Particulars: mouse, in vivo.
A further data set has as its target MERS-CoV 3CLPro (Middle East respiratory syndrome-related coronavirus, UniProt K9N7C7). The data set is described as follows: biochemical.
A further data set in a line: in vivo. Particulars: female, CD-1, mouse; for AUC: po.
Data set [5] relates to MERS-CoV. The data set is described as follows: microbe, parasite or virus in culture. It counts as cell-based. Particulars: read-out: IC50 Mean ± SD.
Data set [6] can be described thus: in vitro. Particulars: African green monkey.
A further data set concerns MERS-CoV replicon. The data set is described as follows: microbe, parasite or virus in culture. It counts as cell-based. Particulars: Middle East respiratory syndrome-related coronavirus, A549, read-out: EC50 Geomean.
The test system of data set [7] is SARS-CoV-2 replicon. Particulars: read-out: EC50 Geomean.
Another data set has as its system hCoV-OC43. The data set is described as follows: microbe, parasite or virus in culture. Particulars: Betacoronavirus 1, OC43, Huh-7, 120 h, read-out: EC50 Geomean. It counts as cell-based.
In the next data set the target is hCoV-229E 3CLPro (Human coronavirus 229E, UniProt P0C6X1). Briefly: biochemical.
Sequence of hCoV-229E 3CLPro (P0C6X1 2966-3267 limits assumed): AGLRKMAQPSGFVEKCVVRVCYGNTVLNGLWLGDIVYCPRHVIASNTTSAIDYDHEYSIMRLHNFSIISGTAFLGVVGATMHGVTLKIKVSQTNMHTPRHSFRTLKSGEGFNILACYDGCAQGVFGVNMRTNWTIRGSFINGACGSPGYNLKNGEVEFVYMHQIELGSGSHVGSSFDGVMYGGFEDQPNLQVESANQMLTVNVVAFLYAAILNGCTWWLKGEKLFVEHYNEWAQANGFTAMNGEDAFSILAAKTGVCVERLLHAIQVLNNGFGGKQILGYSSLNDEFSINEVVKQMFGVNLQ
The next data set concerns COVID-19. Particulars: human, in vivo; cited from earlier work.
The conditions of data set [8]: in vivo; cited from earlier work.
For data set [9], the system named is SARS-CoV-2 replicon. Briefly: microbe, parasite or virus in culture. Particulars: Severe acute respiratory syndrome coronavirus 2, A549, read-out: EC50 Geomean.
In data set [10] the test system is SARS-CoV-2 (Omicron EG.5.1) and MERS-CoV. It counts as cell-based.
The mark [11] stands for this setting: Middle East respiratory syndrome-related coronavirus, VeroE6/TMPRSS2, 72 h, read-out: EC50 Mean ± SD.
Setting [12] is: Middle East respiratory syndrome-related coronavirus, read-out: EC50 Geomean.
Where [13] appears, read: Middle East respiratory syndrome-related coronavirus.
[14] abbreviates: Severe acute respiratory syndrome coronavirus 2, read-out: EC50 Geomean.
Where [15] appears, read: Middle East respiratory syndrome-related coronavirus, VeroE6/TMPRSS2, 48 h.

Sequence of hCoV-HKU1 3CLPro (P0C6X2 3335-3637 limits assumed): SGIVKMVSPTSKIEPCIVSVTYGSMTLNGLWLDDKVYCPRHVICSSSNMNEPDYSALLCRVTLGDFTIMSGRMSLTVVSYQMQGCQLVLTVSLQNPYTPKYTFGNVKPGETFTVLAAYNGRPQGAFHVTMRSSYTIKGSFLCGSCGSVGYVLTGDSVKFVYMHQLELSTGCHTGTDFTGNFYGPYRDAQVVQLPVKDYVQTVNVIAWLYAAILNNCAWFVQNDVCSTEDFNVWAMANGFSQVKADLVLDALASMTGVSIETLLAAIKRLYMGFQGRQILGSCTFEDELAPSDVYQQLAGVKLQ
Sequence of MERS-CoV 3CLPro (K9N7C7 3248-3553 limits assumed): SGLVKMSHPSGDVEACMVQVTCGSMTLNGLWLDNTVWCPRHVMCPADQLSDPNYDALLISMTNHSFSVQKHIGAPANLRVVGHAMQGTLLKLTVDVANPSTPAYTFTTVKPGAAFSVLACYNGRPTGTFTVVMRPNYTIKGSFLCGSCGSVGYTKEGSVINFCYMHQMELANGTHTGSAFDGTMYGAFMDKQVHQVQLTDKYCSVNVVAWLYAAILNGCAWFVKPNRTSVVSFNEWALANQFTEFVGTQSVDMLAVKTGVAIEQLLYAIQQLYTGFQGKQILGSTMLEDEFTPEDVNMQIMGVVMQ

As usually defined, the IC50 is the point on the concentration scale where inhibition reaches its midpoint. By EC50 is commonly meant the concentration at which the effect is half-maximal. The EC90 is the concentration needed for an effect of 90%. In general, Vd refers to the apparent volume that relates the amount in the body to the concentration in plasma or blood. The clearance is a measure of how efficiently the substance is removed, as volume per time. As a reminder, the half-life is how long it takes for the measured level to halve. As usually defined, the AUC is the area under the concentration-time curve, a measure of exposure. On to `CNC(=O)C(=O)[C@H](CCC(C)(F)F)NC(=O)[C@@H]1[C@H]2CCC[C@H]2CN1C(=O)[C@@H](NC(=O)OC)C(C)(C)C` [MK-7845], for which the “unbound mouse plasma fraction (fup)” value stood at 0.379. For the same compound, the half-maximal inhibitory concentration (IC50) against hCoV-HKU1 3CLPro came out at 25.5 nM. The “plasma levels at troughs versus PBA EC90” value in data set [1] is given as “above the PBA EC90”. In the data set on SARS-CoV-2 USA-WA1/2020, the body weight change result is “gained weight”; the “lung pathology (H&E, semi-quantitative)” value is “significantly reduced”; the “lung pathology compared with vehicle group (H&E, semi-quantitative)” value is listed as “similar”; the “reduction in lung viral load (TCID50)” value is given as “no significant reduction in viral load”. Further, in the data set on SARS-CoV-2 USA-WA1/2020, the “reduction in viral burden (TCID50) versus the nirmatrelvir group” value is 3.4 log and 5 log; the “reduction in viral load by PFU assay compared to vehicle control” value was “did not show a significant reduction in viral load”; the “reduction of lung viral load (TCID50) compared to vehicle control” value is ~ 5 logs and ~ 6 logs. Further, in the data set on SARS-CoV-2 USA-WA1/2020 (po), the “reduction in viral burdens in the lungs” value was greater than 6 log orders. In addition, the “plasma concentrations versus PBA EC90” value in data set [2] (CD-1, mouse) is on record as “above the PBA EC90”. Moreover, in [2] (mouse), the “total plasma concentrations versus replicon EC90 and PBA EC90” value was “stayed above”. Further, the EC50 in the data set on MERS-CoV [3] (setting [11]) is 460 nM. The EC50 in the data set on MERS-CoV [3] (setting [12]) came to 390 nM. Further, the EC90 in the data set with MERS-CoV [3] (setting [13]) is 541 ± 10 nM. Also, the EC50 in the data set on MERS-CoV [3] (read-out: EC50 Mean ± SD) turned out to be 463 ± 8 nM. Moreover, the midpoint of inhibition against hCoV-NL63 3CLPro, the IC50, lay at 167 nM. In the data set on hCoV-229E, the EC50 came out at 3150 nM. Further, in the data set on SARS-CoV-2 (setting [14]), the half-maximal effective concentration (EC50) turned out to be 140 nM. The compound further had an IC50 on SARS-CoV-1 3CLPro of 19.2 nM. Also, on hCoV-OC43 3CLPro, the IC50 was 17 nM. Further, the EC50 in “in vitro [4]” is greater than 36000 nM. Further, in the data set with MERS-CoV EMC 2012, the “PFU assay of lung homogenate” value is listed as “no plaques were formed”; the “decrease in viral burden by PFU assay compared to vehicle-treated mice” value is ~ 6 log; the “lung pathology (H&E, semi-quantitative)” value is “notable reduction in lung pathology”; the “reduction in viral burden compared to vehicle-control group” value came to 3 log TCID50. In the data set on MERS-CoV EMC 2012, the “reduction in viral load by PFU assay in comparison to nirmatrelvir” value is 2.9 log and 3.6 log; the “viral genomic RNA in lung tissue by RT-PCR” value is listed as “did not observe a significant reduction”. In addition, in the data set with MERS-CoV EMC 2012 (po), the “reduction in viral burdens in the lungs” value is listed as greater than 6 log orders. The compound further gave an IC50 against MERS-CoV 3CLPro of 318 nM. Also, in the data set “in vivo” (iv, 5 mg/kg), the Vd is 1.2 L/kg, the clearance is 17.5 mL/min/kg and the half-life is 47.4 min. This compound yielded an AUC in “in vivo” (100 mg/kg) of 49.1 µg·h/mL. In the data set “in vivo” (250 mg/kg), the AUC amounted to 146 µg·h/mL. This compound gave an AUC in the data set “in vivo” (500 mg/kg) of 238 µg·h/mL. The AUC in “in vivo” (1000 mg/kg) amounted to 306 µg·h/mL. Besides, in the data set with MERS-CoV [5] (setting [15]), the concentration for half-maximal inhibition (IC50) was 360 nM. Further, the IC50 in the data set with MERS-CoV [5] was 362 ± 65 nM. The CC50 in “in vitro [6]” was greater than 100000 nM. Also, in the data set with MERS-CoV replicon, the concentration for a half-maximal effect (EC50) stood at 270 nM. Further, the EC50 in the data set on SARS-CoV-2 replicon [7] amounted to 15 nM. Further, the EC50 in the data set with hCoV-OC43 worked out at 370 nM. In addition, at hCoV-229E 3CLPro, the IC50 turned out to be 307 nM.
With `CC(C)(C)[C@H](NC(=O)C(F)(F)F)C(=O)N1C[C@H]2[C@@H]([C@H]1C(=O)N[C@H](C#N)C[C@@H]1CCNC1=O)C2(C)C` [Nirmatrelvir, nirmatrelvir], the “lung pathology compared with vehicle group (H&E, semi-quantitative)” value in the data set on SARS-CoV-2 USA-WA1/2020 is given as “similar”. The “lung viral loads (TCID50), dose validation” value in the data set with SARS-CoV-2 USA-WA1/2020 and in the data set with MERS-CoV EMC 2012 was “significant reduction in the lung viral loads” throughout. The “viral lung burden (TCID50 and PFU assay)” value in the data set on SARS-CoV-2 USA-WA1/2020 is ~ 6 logs. Also, the EC50 in the data set on MERS-CoV [3] (setting [11]) was 88 ± 30 nM; in the data set with MERS-CoV [3] (setting [12]) it was 70 nM; in the data set on hCoV-229E it was 473 nM; with SARS-CoV-2 (setting [14]), 70 nM; in the data set with SARS-CoV-2 (read-out: EC50 Mean ± SD) it was 50 ± 10 nM; in the data set “in vitro [4]”, greater than 36000 nM. Moreover, the results for the EC50 with SARS-CoV-2 replicon [9], with MERS-CoV replicon and with hCoV-OC43 were 10 nM, 60 nM and 163 nM, respectively. Further, in the data set with MERS-CoV [3] (setting [13]), the EC90 was 164 ± 10 nM. Also, in the data set on COVID-19, the “reduction in hospitalization rates and deaths” value is 80–90%. The “increase of plasma levels by ritonavir” value in data set [8] is listed as “up to 20 fold”. Further, the IC50 with MERS-CoV [5] (setting [15]) worked out at 117 ± 23 nM. The CC50 in “in vitro [6]” is greater than 100000 nM.
As for `CCC(CC)COC(=O)[C@H](C)N[P@](=O)(OC[C@H]1O[C@@](C#N)(c2ccc3c(N)ncnn23)[C@H](O)[C@@H]1O)Oc1ccccc1` [Remdesivir, remdesivir], the 50% effective concentration (EC50) is 110 ± 18 nM in the data set with MERS-CoV [3] (setting [11]); 150 nM in the data set on MERS-CoV [3] (setting [12]); 149 ± 4 nM with SARS-CoV-2 (Severe acute respiratory syndrome coronavirus 2, VeroE6/TMPRSS2, 72 h, read-out: EC50 Mean ± SD); 170 nM in the data set on SARS-CoV-2 (setting [14]); 110 nM and 163 nM and 94 nM and 155 nM and 90 nM and 141 nM and 150 nM in the data set on SARS-CoV-2 (read-out: EC50 Mean ± SD); 270 nM in the data set with SARS-CoV-2 replicon [9]. Besides, in the data set with MERS-CoV replicon, the EC50 was 780 nM. The EC90 in the data set with MERS-CoV [3] (setting [13]) amounted to 240 ± 93 nM. For the same compound, the IC50 with MERS-CoV [5] (setting [15]) came to 167 ± 33 nM. The same compound came in with a CC50 in the data set “in vitro [6]” of 20000 nM. For the same compound, the “shift in activity in the presence versus the absence of the P-GP inhibitor” value in [10] is “significant shift in activity”.
In the case of `COc1cc2c(cc1OC)CN(CCc1ccc(NC(=O)c3cccc4c(=O)c5cccc(OC)c5[nH]c34)cc1)CC2` [elacridar], the “toxicity of P-GP inhibitor to cells” value in the data set on Vero E6+TMPRSS2 cells is given as “not toxic”. Further, the “effect of P-GP inhibitor on the infection” value in [10] is reported as “did not show an effect on the infection”.
